Values of other authors, collected in publication PMC4791274, “Cerdulatinib, a novel dual SYK/JAK kinase inhibitor, has broad anti-tumor activity in both ABC and GCB types of diffuse large B cell lymphoma” (Oncotarget, 2015).

Columns and labels:
TYK2 = conditions: biochemical assay; cited from earlier work
JAK2 = conditions: biochemical assay; cited from earlier work

## CCS(=O)(=O)N1CCN(c2ccc(Nc3ncc(C(N)=O)c(NC4CC4)n3)cc2)CC1 [cerdulatinib]
TYK2
  IC50: 0.5 nM
JAK2
  IC50: 6 nM
